{"source": "ChEMBL document CHEMBL4359836", "about": "“Synthesis and Biological Assessment of Pyrrolobenzoxazine Scaffold as a Potent Antioxidant” (J Med Chem, 2019)", "key": {"[1]": {"assay": "Antioxidant activity in pH 7.4 phosphate buffer assessed as H2O2 scavenging activity by measuring H2O2 decomposition at 1.34 to 10.72 uM by spectrophotometric analysis", "format": "functional"}, "[2]": {"assay": "Antioxidant activity in pH 7.4 potassium phosphate buffer assessed as CuCl2/ascorbic acid induced hydroxyl radical scavenging activity by measuring deoxyribose degradation product formation after 20 mins by thiobarbituric acid based absorbance analysis", "format": "functional"}, "[3]": {"assay": "Pro-oxidant activity in pH 7.4 potassium phosphate buffer assessed as reduction in CuCl2/ascorbic acid induced hydroxyl radical scavenging activity at > 66 uM in presence of deoxyribose by measuring deoxyribose degradation product formation after 20 mins by thiobarbituric acid based absorbance analysis"}, "[4]": {"assay": "Antioxidant activity in pH 7.4 phosphate buffer assessed as DPPH radical scavenging activity at 64 uM after 30 mins by spectrophotometric analysis (reference value: 0.811 +/- 0.02%)", "format": "functional"}, "[5]": {"test_system": "Mitochondria", "assay": "Antioxidant activity in goat cardiac mitochondria assessed as inhibition of CuCl2/ascorbic acid-induced lipid peroxidation at 66 uM after 1 hr by thiobarbituric acid based UV-Visible spectrophotometric method (reference value: 60.11%)", "format": "functional, subcellular", "conditions": "Capra hircus, Heart, Mitochrondria"}, "[6]": {"test_system": "Mitochondria", "assay": "Antioxidant activity in goat cardiac mitochondria assessed as inhibition of CuCl2/ascorbic acid-induced protein carbonyl content at 16.5 uM after 1 hr by DNPH assay relative to control", "format": "functional, subcellular", "conditions": "Capra hircus, Heart, Mitochrondria"}, "[7]": {"test_system": "Mitochondria", "assay": "Antioxidant activity in goat cardiac mitochondria assessed as inhibition of CuCl2/ascorbic acid-induced manganese superoxide dismutase at 33 uM after 1 hr by pyrogallol autoxidation method relative to control", "format": "functional, subcellular", "conditions": "Capra hircus, Heart, Mitochrondria"}, "[8]": {"test_system": "Mitochondria", "assay": "Antioxidant activity in goat cardiac mitochondria assessed as reversal of CuCl2/ascorbic acid-induced reduction in GSH level at 16.5 uM after 1 hr by DTNB reagent based method relative to control", "format": "functional, subcellular", "conditions": "Capra hircus, Heart, Mitochrondria"}, "[9]": {"test_system": "Mitochondria", "assay": "Antioxidant activity in goat cardiac mitochondria assessed as reversal of CuCl2/ascorbic acid-induced reduction in GSH level after 1 hr by DTNB reagent based method", "format": "functional, subcellular", "conditions": "Capra hircus; Heart; Mitochrondria"}, "[10]": {"test_system": "Mitochondria", "assay": "Antioxidant activity in goat cardiac mitochondria assessed as reversal of CuCl2/ascorbic acid-induced reduction in ICDH level at 8.25 uM using isocitrate as substrate after 1 hr (reference value: 65.58%)", "format": "functional, subcellular", "set-up": "scale not given: the % may be the effect or the level left", "conditions": "Capra hircus, Heart, Mitochrondria"}, "[11]": {"test_system": "Mitochondria", "assay": "Antioxidant activity in goat cardiac mitochondria assessed as reversal of CuCl2/ascorbic acid-induced reduction in ICDH level at 33 uM using isocitrate as substrate after 1 hr relative to control", "format": "functional, subcellular", "conditions": "Capra hircus, Heart, Mitochrondria"}, "[12]": {"test_system": "Mitochondria", "assay": "Antioxidant activity in goat cardiac mitochondria assessed as reversal of CuCl2/ascorbic acid-induced reduction in alpha-KGDH level at 16.5 uM using alpha-ketoglutarate as substrate after 1 hr (reference value: 69.78%)", "format": "functional, subcellular", "set-up": "scale not given: the % may be the effect or the level left", "conditions": "Capra hircus, Heart, Mitochrondria"}, "[13]": {"test_system": "Mitochondria", "assay": "Antioxidant activity in goat cardiac mitochondria assessed as reversal of CuCl2/ascorbic acid-induced reduction in alpha-KGDH level at 66 uM using alpha-ketoglutarate as substrate after 1 hr relative to control", "format": "functional, subcellular", "conditions": "Capra hircus, Heart, Mitochrondria"}, "[14]": {"test_system": "Mitochondria", "assay": "Antioxidant activity in goat cardiac mitochondria assessed as reversal of CuCl2/ascorbic acid-induced reduction in SDH level at 33 uM using succinate as substrate after 1 hr by spectrophotometric analysis relative to control", "format": "functional, subcellular", "conditions": "Capra hircus, Heart, Mitochrondria"}, "[15]": {"assay": "Effect on PDH levels in goat cardiac mitochondria at 8.25 to 66 uM using sodium pyruvate as substrate after 1 hr by spectrophotometric analysis", "format": "ADME, subcellular, Capra hircus, Heart, Mitochrondria"}, "[16]": {"assay": "Effect on SDH levels in goat cardiac mitochondria at 8.25 to 66 uM using succinate as substrate after 1 hr by spectrophotometric analysis", "format": "ADME, subcellular, Capra hircus, Heart, Mitochrondria"}, "[17]": {"assay": "Inhibition of succinate dehydrogenase in goat cardiac mitochondria assessed as effect on Vmax at 66 uM using succinate as substrate after 1 hr by Lineweaver-Burk double reciprocal plot analysis", "set-up": "species or system Capra hircus, Heart"}, "[18]": {"organism": "Capra hircus", "assay": "Effect on PDH in goat cardiac mitochondria assessed as reversal of CuCl2/ascorbic acid induced reduction in Vmax at 66 uM using sodium pyruvate as substrate after 1 hr by Lineweaver-Burk double reciprocal plot analysis", "conditions": "Heart"}, "[19]": {"organism": "Capra hircus", "assay": "Effect on PDH in goat cardiac mitochondria assessed as reversal of CuCl2/ascorbic acid induced reduction in Km at 66 uM using sodium pyruvate as substrate after 1 hr by Lineweaver-Burk double reciprocal plot analysis", "conditions": "Heart"}, "[20]": {"organism": "Capra hircus", "assay": "Effect on alpha-ketoglutarate dehydrogenase in goat cardiac mitochondria assessed as reversal of CuCl2/ascorbic acid induced reduction in Vmax at 66 uM using alpha-ketoglutarate as substrate by Lineweaver-Burk double reciprocal plot analysis", "conditions": "Heart"}, "[21]": {"organism": "Capra hircus", "assay": "Effect on alpha-ketoglutarate dehydrogenase in goat cardiac mitochondria assessed as reversal of CuCl2/ascorbic acid induced reduction in Km at 66 uM using alpha-ketoglutarate as substrate after 1 hr by Lineweaver-Burk double reciprocal plot analysis", "conditions": "Heart"}, "[22]": {"test_system": "Mitochondria", "assay": "Protective activity against CuCl2/ascorbic acid-induced oxidative damage in goat cardiac mitochondria assessed as reversal of CuCl2/ascorbic acid-induced reduction in fluorescence intensity at 66 uM after 1 hr by Janus green-B staining based confocal microscopic method relative to control", "format": "functional, subcellular", "conditions": "Capra hircus, Heart, Mitochrondria"}, "[23]": {"test_system": "Mitochondria", "assay": "Protective activity against CuCl2/ascorbic acid-induced apoptotic alteration in goat cardiac mitochondria assessed as reversal of CuCl2/ascorbic acid-induced reduction in cytochrome c oxidoreductase activity at 16.5 uM incubated for 1 hr and measured at 10 secs time interval for 90 secs by spectrophotometric analysis (reference value: 47.82%)", "format": "functional, subcellular", "set-up": "scale not given: the % may be the effect or the level left", "conditions": "Capra hircus, Heart, Mitochrondria"}, "[24]": {"test_system": "Mitochondria", "assay": "Protective activity against CuCl2/ascorbic acid-induced apoptotic alteration in goat cardiac mitochondria assessed as reversal of CuCl2/ascorbic acid-induced reduction in cytochrome c oxidoreductase activity at 33 uM measured at 10 secs time interval for 90 secs by spectrophotometric analysis (reference value: 47.82%)", "format": "functional, subcellular", "set-up": "scale not given: the % may be the effect or the level left", "conditions": "Capra hircus, Heart, Mitochrondria"}, "[25]": {"test_system": "Mitochondria", "assay": "Protective activity against CuCl2/ascorbic acid-induced apoptotic alteration in goat cardiac mitochondria assessed as reversal of CuCl2/ascorbic acid-induced reduction in cytochrome c oxidase activity incubated for 1 hr and measured at 10 secs time interval for 90 secs by spectrophotometric analysis", "format": "functional, subcellular", "conditions": "Capra hircus; Heart; Mitochrondria"}, "[26]": {"test_system": "Mitochondria", "assay": "Protective activity against CuCl2/ascorbic acid-induced apoptotic alteration in goat cardiac mitochondria assessed as reversal of CuCl2/ascorbic acid-induced reduction in cytochrome c oxidase activity at 16.5 uM incubated for 1 hr and measured at 10 secs time interval for 90 secs by spectrophotometric analysis relative to control", "format": "functional, subcellular", "conditions": "Capra hircus, Heart, Mitochrondria"}, "[27]": {"assay": "Effect on cytochrome c oxidase activity in goat cardiac mitochondria at 8.25 to 66 uM incubated for 1 hr and measured at 10 secs time interval for 90 secs by spectrophotometric analysis", "format": "ADME, subcellular, Capra hircus, Heart, Mitochrondria"}, "[28]": {"test_system": "Mitochondria", "assay": "Protective activity in goat cardiac mitochondria assessed as inhibition of CuCl2/ascorbic acid-induced perforated surface at 66 uM incubated for 1 hr by scanning electron microscopy", "format": "functional, subcellular", "conditions": "Capra hircus, Heart, Mitochrondria"}, "[29]": {"test_system": "Mitochondria", "assay": "Protective activity in goat cardiac mitochondria assessed as reduction in CuCl2/ascorbic acid-induced calcium accumulation at 66 uM after 60 min (reference value: 25.32%)", "format": "functional, subcellular", "set-up": "scale not given: the % may be the effect or the level left", "conditions": "Capra hircus, Heart, Mitochrondria"}, "[30]": {"assay": "Toxicity in goat cardiac mitochondria assessed as effect on calcium accumulation at 66 uM after 60 mins by calcein AM dye-based flow cytometric analysis", "format": "subcellular, Capra hircus, Heart, Mitochrondria", "conditions": "1 h"}, "[31]": {"assay": "Binding affinity to Cu2+ assessed as binding constant K4 at 66 uM in presence of CuCl2 by isothermal titration calorimetry"}}, "note": "Calls of active or inactive are those of the source. No cut-off for these calls is given here.", "data": [{"smiles": "CCOC(=O)c1c(-c2ccc(O)c(OC)c2)cn2c1c(=O)oc1ccccc12", "values": [{"measurement": "Activity", "setting": "[1]", "value": "inactive"}, {"measurement": "Activity", "setting": "[2]", "value": "Dose-dependent effect"}, {"measurement": "IC50", "setting": "[2]", "value": 11, "unit": "µM"}, {"measurement": "MEC", "setting": "[2]", "value": 66, "unit": "µM"}, {"measurement": "Activity", "setting": "[3]", "value": "Active"}, {"measurement": "Activity", "setting": "[4]", "value": 82.3, "unit": "%"}, {"measurement": "inhibition", "setting": "[5]", "value": 36.4, "unit": "%"}, {"measurement": "inhibition", "setting": "[6]", "value": 44, "unit": "%"}, {"measurement": "inhibition", "setting": "[7]", "value": 41.6, "unit": "%"}, {"measurement": "fold change (FC)", "setting": "[8]", "value": 3.06}, {"measurement": "Activity", "setting": "[9]", "value": "Dose-dependent effect"}, {"measurement": "Activity", "setting": "[10]", "value": 37.7, "unit": "%"}, {"measurement": "fold change (FC)", "setting": "[11]", "value": 2.4}, {"measurement": "Activity", "setting": "[12]", "value": 85.4, "unit": "%"}, {"measurement": "fold change (FC)", "setting": "[13]", "value": 4.62}, {"measurement": "fold change (FC)", "setting": "[14]", "value": 3.06}, {"measurement": "Activity", "setting": "[15]", "value": "Non-Toxic"}, {"measurement": "Activity", "setting": "[16]", "value": "Non-Toxic"}, {"measurement": "inhibition (INH)", "setting": "[17]", "value": "Not Active"}, {"measurement": "Activity", "setting": "[18]", "value": "Active"}, {"measurement": "Activity", "setting": "[19]", "value": "Active"}, {"measurement": "Activity", "setting": "[20]", "value": "Active"}, {"measurement": "Activity", "setting": "[21]", "value": "Active"}, {"measurement": "fold change (FC)", "setting": "[22]", "value": 4.42}, {"measurement": "Activity", "setting": "[23]", "value": 35.2, "unit": "%"}, {"measurement": "Activity", "setting": "[24]", "value": 49.8, "unit": "%"}, {"measurement": "Activity", "setting": "[25]", "value": "Dose-dependent effect"}, {"measurement": "fold change (FC)", "setting": "[26]", "value": 2.36}, {"measurement": "Activity", "setting": "[27]", "value": "Non-Toxic"}, {"measurement": "Activity", "setting": "[28]", "value": "Active"}, {"measurement": "Activity", "setting": "[29]", "value": 15, "unit": "%"}, {"measurement": "Activity", "setting": "[30]", "value": "Non-Toxic"}, {"measurement": "K", "setting": "[31]", "value": 9, "unit": "×10⁴ /M"}]}]}
